Literature values, collected in US20020054921A1, “Use of phyllanthus components for the treatment or prophylaxis of infections triggered by flavivirdae” (priority 2000, published 2002).

Key:
[1] = target: T1, cAMP-dependent protein kinase of the rat liver (Rattus norvegicus, UniProt P27791)
T1 construct: the cAMP-dependent protein kinase of the rat liver; host or cells: rat liver

[2] = tested on: Ca^2+-dependent protein kinase of the wheat embryo; details: wheat embryo Ca^2+-dependent protein kinase
[3] = tested on: Ca^2+ and phospholipid-dependent protein kinase C (PKC) of the rat brain
Bacillus subtilis = details: 0.1 ml added; extract 50 mg/ml, streptomycin 10 mg/ml
Staphylococcus aureus = details: 0.1 ml added; extract 50 mg/ml, streptomycin 10 mg/ml

Compound: geraiin
- inhibition of protein kinase [1]: most effective
- inhibition of protein kinase [2]: most effective
- inhibition of protein kinase [3]: most effective

Compound: O=C1OC2C3OC(=O)C4=CC(=O)C5(O)Oc6c(O)c(O)cc(c6C4C5(O)O)C(=O)OC2C(OC(=O)c2cc(O)c(O)c(O)c2)OC3COC(=O)c2cc(O)c(O)c3c2C2C1=CC(=O)C(O)(O3)C2(O)O (centres unmarked) [amariin]
- inhibition of protein kinase [1]: most effective
- inhibition of protein kinase [2]: most effective
- inhibition of protein kinase [3]: most effective

Compound: [H]/N=C(/N)N[C@H]1[C@H](O)[C@@H](O)[C@H](O[C@@H]2O[C@@H](C)[C@](O)(C=O)[C@H]2O[C@@H]2O[C@@H](CO)[C@H](O)[C@@H](O)[C@@H]2NC)[C@@H](N/C(N)=N\[H])[C@@H]1O [streptomycin]
- inhibition zone (Bacillus subtilis): 35 mm
- inhibition zone (Staphylococcus aureus): 35 mm
